From patent US4205163A, “Tylosin derivatives” (Sanraku-Ocean Co., Ltd., priority 1977, dated 1980)
Converted amounts (≈) assume the structure as drawn. Like-named read-outs stand apart in the source and are kept apart here.

Columns and labels:
[1] = tested on: Bacillus cereus ATCC 9634; assay: antimicrobial activity, broth dilution method; assay type: cell-based; details: Bacillus cereus, ATCC9634, Bacillus cereus ATCC 9634; broth dilution; read-out: minimum inhibitory concentration (MIC)
Experimental: (§1) Antimicrobial activity of the new antibiotics according to the present invention was measured on various pathogenic microorganisms by the broth dilution mehtod. Tab. […] The new antibiotics show a similar antimicrobial spectrum to that of tylosin as shown in Tab. 4. All the compounds have an excellent antimicrobial activity mainly on gram-positive bacteria. […] Test microorganisms with an asterisk mark (*) in Tab. 4 are all drug-resistant strains that were clinically isolated. More in detail, Staphylococcus aureus MS-8710 is resistant to tylosin, penicillin, tetracycline, erythromycin and leucomycin. Staphylococcus aureus MS-9931 is resistant to tylosin, penicillin, erythromycin, tetracycline, leucomycin, spiramycin and josamycin. And also Streptococcus piogenes is resistant to tylosin, erythromycin, oleandomycin and leucomycin.

[2] = tested on: Sarcina lutea ATCC 9341; assay: antimicrobial activity, broth dilution method; assay type: cell-based; details: Micrococcus luteus, ATCC9341, Sarcina lutea ATCC 9341, read-out: minimum inhibitory concentration (MIC)
Experimental: as §1

[3] = tested on: Staphylococcus aureus FDA-209P; assay: antimicrobial activity, broth dilution method; assay type: cell-based; details: Staphylococcus aureus, FDA209P, Staphylococcus aureus FDA-209P; broth dilution; read-out: minimum inhibitory concentration (MIC)
Experimental: as §1

[4] = tested on: Staphylococcus aureus MS-8710; assay: antimicrobial activity, broth dilution method; assay type: cell-based; details: Staphylococcus aureus, MS8710, Staphylococcus aureus MS-8710, drug-resistant clinical isolate; read-out: minimum inhibitory concentration (MIC)
Experimental: as §1

[5] = tested on: Staphylococcus aureus MS-9931; assay: antimicrobial activity, broth dilution method; assay type: cell-based; details: MS9931; Staphylococcus aureus MS-9931, drug-resistant clinical isolate; read-out: minimum inhibitory concentration (MIC)
Experimental: as §1

[6] = tested on: Staphylococcus aureus MS-9937; assay: antimicrobial activity, broth dilution method; assay type: cell-based; details: MS9937; Staphylococcus aureus MS-9937, drug-resistant clinical isolate; read-out: minimum inhibitory concentration (MIC)
Experimental: as §1

[7] = tested on: Staphylococcus aureus SMITH; assay: antimicrobial activity, broth dilution method; assay type: cell-based; details: Staphylococcus aureus, Staphylococcus aureus SMITH; broth dilution; read-out: minimum inhibitory concentration (MIC)
Experimental: as §1

[8] = tested on: Streptococcus pyogenes MH-771; assay: antimicrobial activity, broth dilution method; assay type: cell-based; details: Streptococcus pyogenes, MH771, Streptococcus pyogenes MH-771, drug-resistant clinical isolate; read-out: minimum inhibitory concentration (MIC)
Experimental: as §1

[9] = in vivo; details: mouse, po, 100 mg/kg
Experimental: The new antibiotics according to the present invention were each orally administered to mice at a dose of 100 mg/kg. Each blood level was then measured and compared with those of tylosin and 3-acetyltylosin.

[10] = tested on: Mycoplasma gallisepticum KP-13; assay: antibacterial activity against Mycoplasma; assay type: cell-based; details: Mycoplasmoides gallisepticum, KP13
Description: (§2) Furthermore the new antibiotics according to the present invention also show antimicrobial activity on Mycoplasma. In particular, it is noteworthy that they have much higher antimicrobial activity than tylosin on Mycoplasma that is resistant to macrolide antibiotics. Tab.
(§3) **Medium (Eiken PPLO Medium)

[11] = tested on: Mycoplasma gallisepticum A-72; assay: antibacterial activity against Mycoplasma; assay type: cell-based; details: Mycoplasmoides gallisepticum, A72; strain A-72, macrolide resistant; Eiken PPLO Medium
Description: as §2
(§4) *Macrolide resistant strain
as §3

[12] = tested on: Mycoplasma gallisepticum E-11; assay: antibacterial activity against Mycoplasma; assay type: cell-based; details: Mycoplasmoides gallisepticum, E11
Description: as §2, §4, §3

[13] = tested on: Mycoplasma gallisepticum E-5; assay: antibacterial activity against Mycoplasma; assay type: cell-based; details: Mycoplasmoides gallisepticum, E5
Description: as §2, §4, §3

[14] = strain E-11, macrolide resistant, Eiken PPLO Medium, read-out: MIC
[15] = strain E-5, macrolide resistant, Eiken PPLO Medium, read-out: MIC
[16] = strain KP-13, Eiken PPLO Medium, read-out: MIC

Cmax [9]	Structure (SMILES)	MIC [1]	MIC [2]	MIC [3]	MIC [4]	MIC [5]	MIC [6]	MIC [7]	MIC [8]	MIC [10]	MIC [11]	MIC [12, 14]	MIC [13, 15]	MIC [10, 16]	MIC [12]	MIC [13]
2000 to 5000 ng/mL	CCC1OC(=O)CC(OC(C)=O)C(C)C(OC2OC(C)C(OC3CC(C)(O)C(O)C(C)O3)C(N(C)C)C2O)C(CC=O)CC(C)C(=O)C=CC(C)=CC1COC1OC(C)C(O)C(OC)C1OC (centres unmarked) [3-acetyltylosin, reference compound]	0.78 µg/mL (≈ 0.814 µM)	0.19 µg/mL (≈ 0.198 µM)	0.39 µg/mL (≈ 0.407 µM)	200 µg/mL (≈ 209 µM)	200 µg/mL (≈ 209 µM)	100 µg/mL (≈ 104 µM)	0.39 µg/mL (≈ 0.407 µM)	200 µg/mL (≈ 209 µM)							
	CCC1OC(=O)CC(OC(C)=O)C(C)C(OC2OC(C)C(OC3CC(C)(O)C(OC(=O)CN(C(C)=O)c4ccccc4)C(C)O3)C(N(C)C)C2O)C(CC=O)CC(C)C(=O)C=CC(C)=CC1COC1OC(C)C(O)C(OC)C1OC (centres unmarked) [Compound 32, 3-acetyl-4"-(N-acetylanilino)acetyltylosin]	0.78 µg/mL (≈ 0.688 µM)	0.39 µg/mL (≈ 0.344 µM)	0.78 µg/mL (≈ 0.688 µM)	12.5 µg/mL (≈ 11 µM)	25 µg/mL (≈ 22.1 µM)	25 µg/mL (≈ 22.1 µM)	0.78 µg/mL (≈ 0.688 µM)	12.5 µg/mL (≈ 11 µM)	0.157 µg/mL (≈ 0.139 µM)	0.157 µg/mL (≈ 0.139 µM)	0.313 µg/mL (≈ 0.276 µM)	0.313 µg/mL (≈ 0.276 µM)			
	CCC1OC(=O)CC(O)C(C)C(OC2OC(C)C(OC3CC(C)(O)C(OC(=O)CSC4CCCCC4)C(C)O3)C(N(C)C)C2O)C(CC=O)CC(C)C(=O)C=CC(C)=CC1COC1OC(C)C(O)C(OC)C1OC (centres unmarked) [Compound 40, 4"-cyclohexylthioacetyltylosin]	0.78 µg/mL (≈ 0.727 µM)	0.39 µg/mL (≈ 0.364 µM)	0.78 µg/mL (≈ 0.727 µM)	12.5 µg/mL (≈ 11.7 µM)	12.5 µg/mL (≈ 11.7 µM)	25 µg/mL (≈ 23.3 µM)	0.78 µg/mL (≈ 0.727 µM)	6.25 µg/mL (≈ 5.83 µM)		0.157 µg/mL (≈ 0.146 µM)			0.078 µg/mL (≈ 0.0727 µM)	0.157 µg/mL (≈ 0.146 µM)	0.157 µg/mL (≈ 0.146 µM)
	CCC1OC(=O)CC(OC(C)=O)C(C)C(OC2OC(C)C(OC3CC(C)(O)C(OC(=O)CSCc4ccccc4)C(C)O3)C(N(C)C)C2O)C(CC=O)CC(C)C(=O)C=CC(C)=CC1COC1OC(C)C(O)C(OC)C1OC (centres unmarked) [Compound 38, 3-acetyl-4"-benzylthioacetyltylosin]	1.56 µg/mL (≈ 1.39 µM)	0.39 µg/mL (≈ 0.347 µM)	0.78 µg/mL (≈ 0.695 µM)	12.5 µg/mL (≈ 11.1 µM)	12.5 µg/mL (≈ 11.1 µM)	12.5 µg/mL (≈ 11.1 µM)	0.78 µg/mL (≈ 0.695 µM)	6.25 µg/mL (≈ 5.57 µM)		0.078 µg/mL (≈ 0.0695 µM)	0.078 µg/mL (≈ 0.0695 µM)	0.078 µg/mL (≈ 0.0695 µM)	0.019 µg/mL (≈ 0.0169 µM)		
	CCC1OC(=O)CC(O)C(C)C(OC2OC(C)C(OC3CC(C)(O)C(OC(=O)CSc4ccncc4)C(C)O3)C(N(C)C)C2O)C(CC=O)CC(C)C(=O)C=CC(C)=CC1COC1OC(C)C(O)C(OC)C1OC (centres unmarked) [Compound 41, 4"-(4-pyridyl)thioacetyltylosin]	0.39 µg/mL (≈ 0.365 µM)	0.19 µg/mL (≈ 0.178 µM)	0.78 µg/mL (≈ 0.731 µM)	12.5 µg/mL (≈ 11.7 µM)	12.5 µg/mL (≈ 11.7 µM)	12.5 µg/mL (≈ 11.7 µM)	0.39 µg/mL (≈ 0.365 µM)	12.5 µg/mL (≈ 11.7 µM)		0.157 µg/mL (≈ 0.147 µM)	0.313 µg/mL (≈ 0.293 µM)	0.313 µg/mL (≈ 0.293 µM)	0.039 µg/mL (≈ 0.0365 µM)		
	CCC1OC(=O)CC(O)C(C)C(OC2OC(C)C(OC3CC(C)(O)C(OC(=O)CCC4CCCCC4)C(C)O3)C(N(C)C)C2O)C(CC=O)CC(C)C(=O)C=CC(C)=CC1COC1OC(C)C(O)C(OC)C1OC (stereo not drawn) [Compound 29, 4"-β-cyclohexylpropionyl tylosin]	0.78 µg/mL (≈ 0.74 µM)	0.39 µg/mL (≈ 0.37 µM)	0.78 µg/mL (≈ 0.74 µM)	12.5 µg/mL (≈ 11.9 µM)	12.5 µg/mL (≈ 11.9 µM)	12.5 µg/mL (≈ 11.9 µM)	0.78 µg/mL (≈ 0.74 µM)	6.25 µg/mL (≈ 5.93 µM)		0.313 µg/mL (≈ 0.297 µM)	0.625 µg/mL (≈ 0.593 µM)		0.039 µg/mL (≈ 0.037 µM)		0.313 µg/mL (≈ 0.297 µM)
	CCC1OC(=O)CC(OC(C)=O)C(C)C(OC2OC(C)C(OC3CC(C)(O)C(OC(=O)COc4ccccc4)C(C)O3)C(N(C)C)C2O)C(CC=O)CC(C)C(=O)C=CC(C)=CC1COC1OC(C)C(O)C(OC)C1OC (centres unmarked) [Compound 45, 3-acetyl-4"-phenoxyacetyltylosin]	0.39 µg/mL (≈ 0.357 µM)	0.19 µg/mL (≈ 0.174 µM)	0.39 µg/mL (≈ 0.357 µM)	100 µg/mL (≈ 91.6 µM)	25 µg/mL (≈ 22.9 µM)	25 µg/mL (≈ 22.9 µM)	0.39 µg/mL (≈ 0.357 µM)	12.5 µg/mL (≈ 11.4 µM)							
